From PubChem BioAssay (NCI)
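Method: 48-hour compound exposure of cells in 96-well plates, five concentrations, linear interpolation of endpoints. Abbreviation: GI50, concentration required for 50% inhibition of growth. At the TGI there is no net growth.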

Assays:
Test in all cases: DTP human tumour cell line panel, 48 h
A498 renal = tested on: A498 renal
HCC-2998 colon = tested on: HCC-2998 colon
HS 578T breast = tested on: HS 578T breast
KM12 colon = tested on: KM12 colon
SK-OV-3 ovarian = tested on: SK-OV-3 ovarian
NCI/ADR-RES ovarian = tested on: NCI/ADR-RES ovarian
CAKI-1 renal = tested on: CAKI-1 renal
UACC-257 melanoma = tested on: UACC-257 melanoma
TK-10 renal = tested on: TK-10 renal
EKVX NSCLC = tested on: EKVX NSCLC

Structure (SMILES)	GI50 (A498 renal)	TGI (A498 renal)	GI50 (HCC-2998 colon)	TGI (HCC-2998 colon)	GI50 (HS 578T breast)	TGI (HS 578T breast)	GI50 (KM12 colon)	TGI (KM12 colon)	GI50 (SK-OV-3 ovarian)	TGI (SK-OV-3 ovarian)	GI50 (NCI/ADR-RES ovarian)	TGI (NCI/ADR-RES ovarian)	GI50 (CAKI-1 renal)	TGI (CAKI-1 renal)	GI50 (UACC-257 melanoma)	TGI (UACC-257 melanoma)	GI50 (TK-10 renal)	TGI (TK-10 renal)	GI50 (EKVX NSCLC)	TGI (EKVX NSCLC)
COC(=O)c1cc(-c2cc(OC)c(OC)c(OC)c2)[nH]c1N/N=C/c1c(Cl)cccc1Cl	0.683 µM	2.46 µM	2.36 µM	18.4 µM	1.15 µM	> 27 µM	0.801 µM	6.94 µM	3.07 µM	13.3 µM	1.46 µM	18.4 µM	1.61 µM	11.4 µM	5.82 µM	35.7 µM	0.528 µM	2.68 µM	8.72 µM	52.9 µM
COc1ccc(C(=O)COc2cccc(/C=C3\CSc4ccccc4C3=O)c2)cc1	16.5 µM	32 µM	1.82 µM	3.39 µM	0.424 µM	4.91 µM	1.56 µM	3.05 µM	10.8 µM	45.7 µM	3.08 µM	9.64 µM	4.07 µM	12.5 µM	2.49 µM	6.12 µM	2.73 µM	9.79 µM	5.3 µM	14.8 µM
N=c1c2c(-c3ccccc3)c(-c3ccccc3)n(Cc3ccccc3)c2ncn1CCCO	3.3 µM	19.7 µM	1.43 µM	7.07 µM	8.36 µM	> 55.9 µM	1.01 µM	14.3 µM	4.18 µM	17.9 µM	1.33 µM	17.6 µM	0.692 µM	6.57 µM	1.75 µM	5.17 µM	5.37 µM	19.3 µM	4.4 µM	21.3 µM
Nc1ncnc2c1ncn2CC(O)C(=O)O (configuration not stated)		> 100 µM		> 100 µM		> 100 µM		> 100 µM		> 100 µM		> 100 µM		> 100 µM		> 100 µM		> 100 µM		> 100 µM
O=C1CC(c2ccc3c(c2)OCO3)Nc2cc3c(cc21)OCO3 (configuration not stated)	0.169 µM	0.862 µM	0.694 µM	11 µM	0.512 µM	93.6 µM	0.398 µM	17.3 µM	0.485 µM	44.2 µM	0.372 µM	83.4 µM	0.527 µM	> 100 µM	21.3 µM	83 µM	2.77 µM	> 100 µM	1.93 µM	72.6 µM
CC1=CCC(OC(=O)C(C)(C)CCC(O)(C(=O)OC2(C(C)C)CCC3(C)OC3C2)C(C)C)(C(C)C)CC1 (configuration not stated)	0.0508 µM	0.935 µM	2.13 µM	7.33 µM	0.735 µM	3.57 µM	0.793 µM	1.6 µM	0.692 µM	5.81 µM	0.635 µM	2.63 µM	0.255 µM	1.05 µM	0.727 µM	1.5 µM	0.532 µM	1.43 µM	0.654 µM	1.41 µM
O=C1C=C[C@@]23C[C@@H](Nc4c(O)c5c6c(c42)=NCCC=6C=N5)SC3=C1	9.04 µM	25.3 µM	4.39 µM	13.6 µM	3.75 µM	19.8 µM		18.5 µM		32.8 µM	2.88 µM	10.1 µM		32.1 µM	1.67 µM	3.04 µM		27.7 µM	7.74 µM	20.2 µM
O=C1c2ccc3c4c5ccc(c24)C(=O)N1CCCOCCCCOCCCNCc1ccc(cc1)CNCCCOCCCCOCCCN(C3=O)C5=O	7.89 µM	15 µM	0.928 µM	1.68 µM	1.4 µM	5.32 µM	0.896 µM	2.06 µM	1.18 µM	2.66 µM	6.12 µM	17.5 µM	0.834 µM	1.71 µM	0.989 µM	1.98 µM	1.03 µM	2.42 µM	0.824 µM	1.63 µM
Cc1ccc2c(c1C)-c1c(ccc(C)c1C)C(=O)C2=O		4.35 µM		18 µM		5.76 µM		2.21 µM		8.41 µM		0.384 µM		7.84 µM		3.48 µM		9.11 µM		6.54 µM
C/C([O-])=C1\Cc2ccccc2C1=O.C/C([O-])=C1\Cc2ccccc2C1=O.CC[O-].CC[O-].[Ti+4]	13.4 µM	31.5 µM	17.3 µM	58.8 µM	11.7 µM	47.2 µM	17.3 µM	46.1 µM	20.3 µM	81.7 µM	23.4 µM	> 100 µM	36.5 µM	> 100 µM	38.6 µM	> 100 µM	32.2 µM	> 100 µM	29.6 µM	> 100 µM
NC(=O)c1cc([N+](=O)[O-])c(Cl)c([N+](=O)[O-])c1	13.8 µM	26.8 µM	2.61 µM	7.46 µM	11.9 µM	29.4 µM	4.69 µM	16.3 µM	16.9 µM	30.6 µM	3.67 µM	13.9 µM	2.59 µM	7.12 µM	3.87 µM	15 µM	1.91 µM	3.36 µM	17.4 µM	35.7 µM
O=C(CCCCCCSc1nc(-c2ccccc2)cc(-c2ccccc2)n1)NO	1.69 µM	4.05 µM	3.07 µM	11.9 µM	1.56 µM	14.5 µM	3.22 µM	15.9 µM	2.42 µM	8.84 µM	0.699 µM	6.15 µM	1.56 µM	6.39 µM	2.23 µM	11.1 µM	2.51 µM	13.5 µM	3.96 µM	17.2 µM
Cc1nc2sc(C(=O)Nc3cccc4ccccc34)c(N)c2cc1C(=O)/C=C/c1ccccc1	0.337 µM	1.87 µM	0.852 µM	1.63 µM	0.281 µM	> 50 µM	0.368 µM	1.25 µM	1.35 µM	> 50 µM	0.173 µM	0.593 µM	0.422 µM	1.44 µM	5.09 µM	> 30.3 µM	1.28 µM	8.88 µM	1.14 µM	> 36.7 µM
COc1ccc2c(c1)c(-c1nc(-c3c[nH]c4ncccc34)cs1)cn2CCCCN1CCOCC1	0.217 µM	3.17 µM	1.91 µM	3.7 µM	2.05 µM	5.82 µM	1.93 µM	3.96 µM	2.37 µM	5.27 µM	2.34 µM	5.78 µM	1.8 µM	3.79 µM	2.18 µM	3.85 µM	5.25 µM	18 µM	2.66 µM	9.69 µM
Cc1nc2cnc3cc(F)c(-c4ccc(Oc5ncccn5)cc4Cl)cc3c2n1[C@H]1CCN(C(=O)CO)C[C@@H]1F	4.58 µM	> 84.9 µM	0.261 µM	15.3 µM	13.4 µM	77.3 µM	0.0405 µM	> 100 µM	3.93 µM	> 100 µM	8.38 µM	49 µM	0.558 µM	16.4 µM	0.0269 µM	0.411 µM	1.76 µM	36 µM	3.23 µM	> 95.5 µM
NC1=C(Br)C(=O)c2ncccc2C1=O		7.99 µM		2.61 µM	0.37 µM	2.84 µM		2.7 µM		3.24 µM	0.987 µM	6.12 µM		2.84 µM		1.89 µM		5.81 µM		3.02 µM
CN(CC(=O)O)c1ccc(/C=C/c2ccnc3ccccc23)cc1		47.1 µM		53 µM		75 µM		41.2 µM		91.6 µM		> 100 µM		66.1 µM		65.4 µM		47.7 µM		30.8 µM
CC(=O)Nc1ccccc1C=C1c2ccccc2-c2ccccc21		> 100 µM		> 100 µM		> 100 µM		> 100 µM				66.7 µM		> 100 µM		> 100 µM		> 100 µM		> 100 µM
COc1ccc(C/C(C)=C(\c2ccc(OCCN3CCOCC3)cc2)c2ccc(OC(=O)Cc3ccccc3)cc2)cc1	0.462 µM	0.971 µM	0.668 µM	1.49 µM	0.658 µM	1.67 µM	1.14 µM	3.37 µM	0.978 µM	4.45 µM	0.961 µM	12.5 µM	0.729 µM	2.13 µM	0.578 µM	1.09 µM	0.778 µM	2.03 µM	0.851 µM	3.49 µM
CC(C)[C@@]12C[C@@H](OC(=O)COC(=O)/C=C/c3ccccc3)[C@@](C)(O1)[C@@H]1CC[C@@H](C)[C@H]1[C@@H]2OC(=O)/C=C/c1ccccc1	< 0.0441 µM	0.401 µM	> 100 µM	> 100 µM	0.0187 µM	0.0774 µM	> 100 µM	> 100 µM	> 100 µM	> 100 µM	0.569 µM	> 100 µM	0.0813 µM		> 100 µM	> 100 µM	> 100 µM	> 100 µM	> 100 µM	> 100 µM
N#Cc1c(N)nc(N2CCOCC2)c(C#N)c1-c1ccc(Cl)cc1	8.11 µM	36.3 µM	21.7 µM	99.2 µM	40.6 µM	> 100 µM			47.2 µM	> 100 µM	23.6 µM	76.2 µM	26 µM	97.1 µM	40.8 µM	> 100 µM			22.5 µM	> 100 µM
CN1CCN(c2nc(NCCCCNc3ccnc4cc(Cl)ccc34)c3ccccc3n2)CC1	12.1 µM	25 µM	2.59 µM	7.12 µM	5.48 µM	26 µM	8.25 µM	25.1 µM	18 µM	41.2 µM	19 µM	56.1 µM			2.03 µM	3.9 µM	1.85 µM	4.69 µM	16.4 µM	40.7 µM
Cc1ccc(/C=C2/SC(Nc3nc(-c4nc(NC5=NC(=O)/C(=C\c6ccc(C)cc6)S5)sc4C)c(C)s3)=NC2=O)cc1	1.4 µM	7.52 µM	1.71 µM	9.92 µM	0.0926 µM	1.14 µM	0.289 µM	18.6 µM			0.435 µM	> 12.7 µM	0.484 µM	9.41 µM	1.04 µM	20.5 µM	0.288 µM	1.21 µM	0.0339 µM	0.15 µM
CC(C)(O)C1CCC(Nc2ccc3ncc(-c4cccc(C(F)(F)F)c4)n3n2)CC1 (configuration not stated)	1.48 µM	4.49 µM	3.26 µM	> 100 µM	1.59 µM	4.67 µM	0.132 µM	11.7 µM	2.68 µM	9.19 µM	2.7 µM	19.5 µM	1.67 µM	7.16 µM			2.62 µM	14.1 µM	3.82 µM	> 100 µM
CC(CN1CCN(C)CC1)CN1c2ccccc2Sc2ccc(C(F)(F)F)cc21 (configuration not stated)	2.98 µM	15.2 µM	1.63 µM	3.07 µM	1.88 µM	5.8 µM	1.95 µM	3.52 µM			1.94 µM	4.94 µM	2.6 µM	11 µM	1.89 µM	3.81 µM	1.85 µM	3.3 µM	2.1 µM	5.38 µM
COc1ccc(-c2cc(-c3ccccc3)nc(N3CCN(CCNc4ccnc5cc(Cl)ccc45)CC3)n2)cc1	8.15 µM	20.7 µM	1.46 µM	3.02 µM	11.3 µM	41.9 µM	1.94 µM	4.04 µM	10.3 µM	22 µM	1.72 µM	4.04 µM	2.97 µM	12.1 µM			2.19 µM	4.88 µM	19 µM	48.3 µM
